Legend:
[1] = test system: New Zealand white rabbits; test: Immunogenicity of synthetic ASPD in rabbits (serum dot blot); format: in vivo, rabbit; conditions: rabbits immunized six times with 100 μg; Freund's adjuvant, aluminum hydroxide adjuvant, or no adjuvant
Procedure: New Zealand white rabbits (3 per each condition) were immunized six times with 100 μg of synthetic ASPD using Freund's adjuvant, aluminum hydroxide adjuvant, and no adjuvant. Thereafter, the whole blood was collected and the reactivity to the synthetic ASPD in serum was evaluated by dot blot.

old cynomolgus monkey = test: Subcutaneous immunization of old cynomolgus monkey with ASPD; format: in vivo
[2] = Storage stability at −80° C. (calibration curve slope in sandwich ELISA with two ASPD-specific antibodies); format: physicochemical; conditions: stored at −80° C. for 0 month, 3 months, and 6 months
Procedure: A cell secreted-type ASPD structure obtained by expressing hAPP695-sw-G33I of Test Example 14 was stored at −80° C. for 0 month, 3 months, and 6 months. The samples thus obtained were subjected to measurement performed with a sandwich ELISA using two types of ASPD-specific antibodies (neutralizing antibodies) to prepare a calibration curve.

[3] = target: anti-ASPD polyclonal antibody (rpASD1); test: Dissociation constant with rpASD1 antibody by surface plasmon resonance; format: binding, rabbit; conditions: ASPD immobilized as ligand, rpASD1 as analyte, SPR; result in words

With “synthetic ASPD: in vitro synthesized spherical Aß assembly produced by slowly stirring a liquid containing wild type Aß1-42” the “reactivity to the synthetic ASPD in serum (dot blot)” value [1] was “sufficient reactivity was obtained in all the rabbits even without using adjuvant”, the “brain glucose metabolism (neural activity)” value (old cynomolgus monkey) was “increased” and the “storage stability (slope of primary regression line of ELISA calibration curve)” value [2] was “low storage stability”. The “dissociation constant (KD) / reactivity to rpASD1” value [3] was “equivalent”.

From US20210214406A1, “AMYLOSPHEROID (ASPD)-LIKE STRUCTURE AND PHARMACEUTICAL COMPOSITION” (TAO HEALTH LIFE PHARMA CO., LTD., priority 2016, published 2021)
